These results are taken from PubChem BioAssay AID504760 (National Center for Advancing Translational Sciences (NCATS), 2011).

This data set has as its system mouse plasma stability, LC-MS/MS, 48 h. In words: Inhibitors of Cruzain: Mouse Plasma Stability Profiling. Particulars: at 2 µM; active compounds read high. The text has this:
Chagas Disease is a neglected tropical disease that affects over 16 million people in Latin America. The cysteine protease cruzain is essential for the survival Trypanosoma cruzi, the parasitic agent responsible for Chagas disease. Potential intervention for T. cruzi includes the inhibition of cruzain. This bioassay will summarize the ongoing development of small molecule cruzain inhbitiors. Currently, a screen of ~200k compounds and through extensive follow-up work a probe was identified. To further characterize the probe, it was tested in in vitro ADME assays. The stability of the lead compound in mouse plasma is tested because this parameter has a significant impact on many ADME-concerned properties of drugs, such as uptake, distribution, transport, and bioavailability. NIH Chemical Genomics Center [NCGC] NIH Molecular Libraries Probe Production Centers Network [MLPCN] MLSCN Grant: DA024891-01 PI Name: Dr. Brian Shoichet; University of California, San Francisco
2uM of compound is incubated in mouse plasma; the reference compound is procaine. Compounds are incubated at 37 deg C for the pre-determined time periods and the when aliquots are removed. Samples are analyzed with LC-MS/MS.

As to `Cc1ccc(OCCn2c(CCNC(=O)C3CCCCC3)nc3ccccc32)cc1`, the percent remaining was 95%.
